# Experimental data published in paper PMC4623604, “Discovery of Small Molecules that Inhibit the Disordered Protein, p27^Kip1” (Scientific Reports, 2015).
# Target: T1, p21-KID (Homo sapiens, UniProt P38936)
# T1 construct: made in house
# Experiment: 2D 1H-15N HSQC NMR with p21-KID
# Assay type: binding
# Conditions: 1 mM compound, 20 μM p21-KID, 298 K
# Procedure: Figure 8 Interaction of p21-KID with representative p27 fragment hits.
# Screening and validation NMR experiments were performed at 298 K (25 °C) using either a Varian Inova 600 MHz spectrometer equipped with a triple resonance (HCN) room temperature gradient probe or a Bruker Avance 600 MHz spectrometer equipped with TCI cryogenic gradient probe and a SampleJet sample changer. Fragment molecules were initially analyzed as pools of five molecules dissolved at 10 mM each in DMSO-D6. […] For initial fragment screening experiments, one-dimensional (1D) ^1H- and WaterLOGSY[35] NMR spectra were recorded for compound pools without and with protein. […] DMSO-D6 was added to maintain a constant concentration (2% vol/vol). […] Tryptophan and tyrosine, respectively, were titrated into ^15N-p27-KID (100 μM) up to 3 mM. […] 2D ^1H-^15N TROSY-HSQC NMR experiments with ^2H/^13C/^15N-p27-D2/Cdk2/cyclin A and SJ403 have been recorded at 308 K (35 °C). 2D ^1H-^15N HSQC experiments of representative fragment hits (1 mM of SJ319843, group 1 and SJ403, group 2, respectively) with ^15N-p21-KID (20 μM) were recorded at 298 K using a Bruker Avance 600 MHz spectrometer. NMR spectra were processed using Bruker Topspin software and analyzed using computer-aided resonance assignment (CARA) software.
# T1 sequence (P38936 9-84 limits assumed): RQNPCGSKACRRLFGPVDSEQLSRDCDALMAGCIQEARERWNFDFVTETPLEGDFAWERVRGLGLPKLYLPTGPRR
smiles,measurement,value
CCn1c(C)c(C)n2c3c(=O)n(C)c(=O)n(C)c3nc12 [SJ403],interaction with p21-KID (1H chemical shift perturbations),interacted with residues near W49 and W65 of p21
